Reference: patent US11304958B2, “Multidentate phenanthridine-containing ligand frameworks and their planar monofunctional platinum complexes for cancer treatment” (UNIVERSITY OF MANITOBA, priority 2018, dated 2022)
Like-named read-outs stand apart in the source and are kept apart here.

Columns and labels:
[1] = system: A2780 (cisplatin sensitive) ovarian cancer cell line; assay: MTT cytotoxicity assay, A2780 ovarian cancer cells; format: cell-based, human; settings: for in vitro cytotoxic activity in the absence of platinum(II): A2780 and A2780cis cell lines; for IC50: 72 h
Description: (§1) In addition, neither the 4-aminophenanthridine precursors nor the proligands L1 or L2 themselves are effective in the absence of platinum(II). As noted above, intercalation enhances covalent binding and ultimately boosts the number of complex-DNA adducts observed for phenanthriplatin, but only when these two processes are simultaneous (30). Phenanthridines in general are anticipated to interact with DNA via an intercalation mechanism, similar to the mechanism of operation of the DNA stain ethidium bromide, of which phenanthridine forms the molecular core (19). […] The differing profile compared to cisplatin (i.e., higher in vitro efficacy and lower cross-resistance) implies a different mechanism of operation from cisplatin, which, considering to the planar structure of 1 and 2 compared to phenanthriplatin (10) likely involves some degree of intercalation. The higher efficacy for 2 (R═CF3) vs 1 (R=tBu) highlights the opportunity to fine-tune biological activity via ligand backbone substitution.
(§2) In addition, neither the phenanthridinyl amines (2-R) nor the ligand itself (L2) are effective in the absence of platinum(II). While not wishing to be bound or limited to a particular theory or hypothesis, it is believed that substituted phenanthridines interact with DNA via an intercalation mechanism, similar to the mechanism of operation of the DNA stain ethidium bromide (19). […] The differing profile compared to cisplatin (i.e., higher in vitro efficacy and lower cross-resistance) implies a different mechanism of operation from cisplatin, which, considering to the planar structure of NNOPt compared to phenanthriplatin (10) likely involves some degree of intercalation. The higher efficacy for 2 (R═CF3) vs 1 (R=tBu) highlights the opportunity to fine-tune biological activity via ligand backbone substitution.
(§3) Cell line: A2780 (ovarian cells), A2780cis (ovarian cells, drug resistant)
(§4) RPMI medium: 10% FBS, 1% PS, 89% RPMI 1×, with L-glutamine
(§5) MTT (5 mg/MI Thiazolyl Blue tetrazolium bromide in PBS)
(§6) A volume of 100 μL of RPMI medium (10% FBS, 1% PS, 89% RPMI 1×, with L-glutamine) containing 2000 cells was seeded in each well of a 96-well microplate, and incubated for 24 h at 37° C. under 5% CO2. After 24 h, a volume of 50 μL of media containing the new compounds of different concentrations was added to the well. The drug-treated cells were incubated for 72 h at 37° C. with 5% CO2. A volume of 30 μL media containing MTT was added into each well, and incubated for 2-4 h at 37° C. with 5% CO2. MTT would be reduced to formazan in living cells.
(§7) Following this, the media were removed carefully by aspiration and 200 μL DMSO was added into each well. The DMSO is used to dissolve the insoluble formazan into a purple solution. The 96-well microplate with DMSO was then shaken for 10 min at room temperature. Final results were obtained by using a microplate reader to examine the absorbance at 562 nm. Analysis of the data was carried out using Origin™.
(§8) A2780 and A2780cis cell lines were cultured in RPM11640 with L-glutamine supplemented with 10% FBS and 1% PS. SKOV-3, MDA-MB-231, A549, and HEK293 cell line were cultured in DMEM 1 g/L glucose, with L-glutamine & sodium pyruvate supplemented with 10% FBS and 1% PS. MET5A cell line was cultured in M199 supplemented with 10% FBS, 1% PS, insulin, 0.1% Trace Elements B, […] Hydrocortisone, and 4 ng/mL EGF. All cell lines were incubated at 37° C. under an atmosphere containing 5% CO2. Cells were passaged by trypsinization and split in a 1:5 ratio.

[2] = system: A2780cis (cisplatin resistant) ovarian cancer cell line; assay: MTT cytotoxicity assay, A2780cis ovarian cancer cells; format: cell-based, human; settings: for resistance factor RF = IC50(A2780cis)/IC50(A2780): ovarian cancer cell lines, FIG. 14B
Description: as §1
(§9) Cisplatin and phenanthriplatin were used as controls. Cancer and normal cells were treated for 72 h and cell viability was assessed.
as §2, §3, §4, §5, §6, §7, §8

[3] = system: non-cancerous mesothelial cell line MET-5A; assay: Cytotoxicity screening against normal cells, MET-5A; format: cell-based, human; settings: 72 h, compared with phenanthriplatin
Description: as §9, §6, §7
(§10) A2780 and A2780cis cell lines were cultured in RPM11640 with L-glutamine supplemented with 10% FBS and 1% PS. SKOV-3, MDA-MB-231, A549, and HEK293 cell line were cultured in DMEM 1 g/L glucose, with L-glutamine & sodium pyruvate supplemented with 10% FBS and 1% PS. […]

[4] = system: non-cancerous kidney cell line HEK293; assay: Cytotoxicity screening against normal cells, HEK293; format: cell-based, human; settings: 72 h, compared with phenanthriplatin
Description: as §9, §6, §7, §10

Human Cancer Cells = settings: reportedly, ref. (9); cited from earlier work
[5] = preliminary cytotoxicity data, MTT, 72 h, read-out: A2780cis IC50
[6] = further screening (FIG. 14A), treated for 72 h, read-out: IC50 in A2780cis cisplatin-resistant ovarian cancer cell line
[7] = Homo sapiens, A2780, preliminary cytotoxicity data
[8] = Homo sapiens, A2780cis, preliminary cytotoxicity data, MTT, 72 h, read-out: A2780cis IC50

With `CC(=O)C=C(C)Nc1cc(C(C)(C)C)cc2c1ncc1ccccc12` [Complex L1, 4-(2′-tert-butyl-4-aminophenanthridinyl)-3-penten-2-one] the “in vitro cytotoxic activity in the absence of platinum(II)” value [1] was “lack of activity”.

“[Pt(tBu-phenanthridine-nacac)Cl] [Complex 1]” gave an IC50 ([1]; preliminary cytotoxicity data) of 2.81 ± 0.168 µM and an IC50 [2, 5] of 4.57 ± 1.41 µM.

With `N.N.O=[N+]([O-])[O-].[Cl][Pt+].c1ccc2c(c1)cnc1ccccc12` [phenanthriplatin, [c/s-R(NH3)2(phenanthridine)Cl][NO3], reference compound] the “resistance factor RF = IC50(A2780cis)/IC50(A2780)” value [2] was 2.7.

In the case of `CC(=O)C=C(C)Nc1cc(C(F)(F)F)cc2c1ncc1ccccc12` [Complex L2, 4-(2′-trifluoromethyl-4′-aminophenanthridinyl)-3-penten-2-one], the “in vitro cytotoxic activity in the absence of platinum(II)” value [1] is reported as “lack of activity”, the IC50 ([1]; preliminary cytotoxicity data) is reported as 7.22 ± 2.07 µM and the IC50 [2, 5] is reported as 20.1 ± 7.17 µM.

For “[Pt(CF3-phenanthridinenacac)Cl] [Complex 2]”, the IC50 ([1]; preliminary cytotoxicity data) was 0.341 ± 0.112 µM, the “IC50 times lower than that of cisplatin” value ([2]; A2780cis, 72 h) was 58 times and the IC50 [2, 6] was 0.55 ± 0.22 µM. The “resistance factor RF = IC50(A2780cis)/IC50(A2780)” value [2] was 1.1, the IC50 [2, 5] was 0.955 ± 0.106 µM and the “toxicity against normal cells (MET-5A)” value [3] was “less toxic than phenanthriplatin”. The “toxicity against normal cells (HEK293)” value [4] was “less toxic than phenanthriplatin”.

With `N.N.[Cl][Pt][Cl]` [cisplatin, cis-diaminedichloroplatinum(II), reference compound] the IC50 ([1]; preliminary cytotoxicity data) was 0.375 ± 0.217 µM, the IC50 [2, 6] was 32.9 ± 8.82 µM and the “resistance factor RF = IC50(A2780cis)/IC50(A2780)” value [2] was 23. For the same molecule, the IC50 [2, 5] was 7.76 ± 0.497 µM.

In the case of `N.N.O=[N+]([O-])[O-].[Cl][Pt+].c1ccncc1` [pyriplatin, [c/s-R(NH3)2(pyridine)Cl][NO3]], the “potency relative to cisplatin or oxaliplatin” value (Human Cancer Cells) is listed as “ten-fold less potent”.

For `Nc1cc(C(F)(F)F)cc2c1ncc1ccccc12` [Complex 2-CF3, 2-trifluoromethyl-4-aminophenanthridine], the IC50 [1, 7] was 19.3 ± 12.1 µM and the IC50 [2, 8] was > 100 µM.

Work on `CC(C)(C)c1cc(N)c2ncc3ccccc3c2c1` [Complex 2-tBu, 2-tert-butyl-4-aminophenanthridine] yielded an IC50 [1, 7] of 8.38 ± 2.83 µM and an IC50 [2, 8] of 20.5 ± 6.07 µM.
